These results are taken from ChEMBL document CHEMBL1134009, “The discovery of a potent, intracellular, orally bioavailable, long duration inhibitor of human neutrophil elastase--GW311616A a development candidate” (Bioorg Med Chem Lett, 2001).

SMILES strings stand for the structures.

The nature of series [1]: Half life of compound was determined in dog blood. The class given is ADME, Canis lupus familiaris.
Series [2] in a line: Plasma clearance was measured in hamster at the dose of 10 mg/kg by peroral administration. Conditions: chinese hamster, po, read-out: Clp. The class given is ADME, organism-based, Cricetulus griseus. Further details: dose 10 mg/kg, route oral.
Series [3] is described as follows: Plasma clearance was measured in hamster at the dose of 3 mg/kg by intravenous administration. The class given is ADME, organism-based, Cricetulus griseus. More on the design: dose 3 mg/kg, route intravenous. The conditions noted are these: chinese hamster, read-out: Clp.
Series [4] in a line: Bioavailability in hamster was determined. The class given is ADME, organism-based, Cricetulus griseus. Conditions: chinese hamster, in vivo.
Series [5] is described as follows: Half life of compound was determined in hamster blood. The class given is ADME, tissue-based, Cricetulus griseus. The conditions noted are these: chinese hamster.
A short description of series [6]: Half life of compound was determined in rat blood. The class given is ADME.
Series [7] in a line: Half life of compound was determined in human blood. The class given is ADME, tissue-based.
In another series the target is T1, Neutrophil elastase (Homo sapiens, UniProt P08246).
T1 sequence (P08246 whole entry): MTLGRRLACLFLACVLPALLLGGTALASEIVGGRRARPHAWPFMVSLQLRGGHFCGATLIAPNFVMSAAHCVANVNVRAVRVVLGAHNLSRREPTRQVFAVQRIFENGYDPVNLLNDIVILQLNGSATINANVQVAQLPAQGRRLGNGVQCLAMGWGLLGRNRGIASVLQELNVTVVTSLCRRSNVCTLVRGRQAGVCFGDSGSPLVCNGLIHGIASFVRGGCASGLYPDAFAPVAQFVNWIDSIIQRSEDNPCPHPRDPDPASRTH
Kind of series: Inhibitory concentration against Elastase.

The subject of series [8] is Cricetulus griseus. The experiment in a line: Percent inhibition of intraneutrophil elastase in hamster bronchoalveolar lavage 6 hours after oral administration at a dose 2.2 mg/kg. The conditions noted are these: Lung. More on the design: dose 2.2 mg/kg. The class given is organism-based.
The test system of series [9] is Cricetulus griseus. Kind of series: Percent inhibition of intraneutrophil elastase in hamster bronchoalveolar lavage at the dose 20 mg/kg 6 hours after oral administration. The class given is organism-based. Further details: dose 20 mg/kg. Conditions: Lung.
Series [10] in a line: Bioavailability in hamster at a dose of 3 mg/kg by […] administration. The class given is ADME, organism-based, Cricetulus griseus. The conditions noted are these: chinese hamster, in vivo.
Series [11] can be described thus: Bioavailability in hamster at a dose of 3 mg/kg by oral administration. The conditions noted are these: chinese hamster, in vivo. The class given is ADME, organism-based, Cricetulus griseus.
For series [12], the system named is Cricetulus griseus. The experiment in a line: Percent inhibition of intraneutrophil elastase in hamster bronchoalveolar lavage 6 hours after oral administration at a dose of 2.2 mg/kg. The conditions noted are these: Lung. The class given is organism-based. More on the design: dose 2.2 mg/kg.
Series [13] deals with Cricetulus griseus. The experiment in a line: Percent inhibition of intraneutrophil elastase in hamster bronchoalveolar lavage 6 hours after oral administration at a dose of 20 mg/kg. The class given is organism-based. Further details: dose 20 mg/kg. The conditions noted are these: Lung.
The species entered for another series is Homo sapiens. The experiment in a line: Residual elastase activity was evaluated after incubation with human whole blood for 30 min. The class given is functional. The conditions noted are these: 0.5 h.
In series [14] the test system is Cricetulus griseus. The experiment in a line: Percent inhibition of intraneutrophil elastase in hamster bronchoalveolar lavage 6 hours after oral administration at a dose of 0.73 mg/kg. The class given is organism-based. More on the design: dose 0.73 mg/kg. The conditions noted are these: Lung.

Regarding `CC(C)[C@H]1C(=O)N(S(C)(=O)=O)[C@H]2CN(C(=O)CCN3CCCCC3)C[C@H]12.Cl`, the half-life in series [1] is more than 6 h; in series [5] it was more than 6 h; in [6], 3.5 h; in series [7] it was more than 6 h. Further, the CL/F in series [2] came out at 60 mL/min/kg. The clearance in [3] is 60 mL/min/kg. In [4], this molecule came in with a bioavailability of 70%. Besides, half-maximal inhibition against Neutrophil elastase (IC50) was put at 0.242 µM. Further, the inhibition was determined as 20% in the series on Cricetulus griseus [8] and 88% in the series with Cricetulus griseus [9].

On to `CCC[C@H]1C(=O)N(S(C)(=O)=O)[C@H]2CN(C(=O)CCN3CCCCC3)C[C@H]12.Cl`, for which the half-life in series [1] was 3.5 h; in series [5], 1.4 h; in [6], 0.3 h; in [7], 3.7 h. The CL/F in series [2] was determined as 140 mL/min/kg. For the same molecule, the clearance in series [3] turned out to be 140 mL/min/kg. Moreover, the bioavailability in series [10] and in series [11] was 49% in each case. Besides, half-maximal inhibition on Neutrophil elastase (IC50) required 0.12 µM. For the same molecule, the inhibition amounted to 4% in the series on Cricetulus griseus [12] and 75% in the series with Cricetulus griseus [13].

In the case of `CC(C)[C@H]1C(=O)N(S(C)(=O)=O)[C@H]2CN(C(=O)/C=C/CN3CCCCC3)CC12` (stereo not given in full), the IC50 was 0.026 µM on Neutrophil elastase and 1.8 µM in the series listed under Homo sapiens. Besides, the inhibition was found to be 33% with Cricetulus griseus [14] and 77% in the series with Cricetulus griseus [12].

In general, half-life refers to how long it takes for the measured level to halve. Read a low half-life as fast loss. Usually bioavailability stands for dose-corrected exposure relative to a reference, in per cent. Low readings indicate little systemic uptake, high ones much systemic uptake. Broadly, the IC50 is the concentration at which inhibition is half-maximal. A lower IC50 goes with greater potency. Usually inhibition stands for the drop in the measured response relative to a control, in per cent. A high value points to a response far below the control.
